Measurements reported in publication PMC8708872, “Discovery of a Novel Template, 7-Substituted 7-Deaza-4′-Thioadenosine Derivatives as Multi-Kinase Inhibitors” (Pharmaceuticals, 2021).
pIC50, pKi: −log10 of the molar value.

How the values were obtained:
CK1δ = biological target: T1, CK1δ (Homo sapiens, UniProt P48730); assay: Kinase inhibition profile, KINOMEscan 11-point dose response; type: binding; conditions: for pIC50: 11-point 3-fold serial dilution; for pKi: by Cheng-Prusoff equation
T1 construct: purchased Eurofins DiscoverX Corporation
T1 sequence (P48730 whole entry): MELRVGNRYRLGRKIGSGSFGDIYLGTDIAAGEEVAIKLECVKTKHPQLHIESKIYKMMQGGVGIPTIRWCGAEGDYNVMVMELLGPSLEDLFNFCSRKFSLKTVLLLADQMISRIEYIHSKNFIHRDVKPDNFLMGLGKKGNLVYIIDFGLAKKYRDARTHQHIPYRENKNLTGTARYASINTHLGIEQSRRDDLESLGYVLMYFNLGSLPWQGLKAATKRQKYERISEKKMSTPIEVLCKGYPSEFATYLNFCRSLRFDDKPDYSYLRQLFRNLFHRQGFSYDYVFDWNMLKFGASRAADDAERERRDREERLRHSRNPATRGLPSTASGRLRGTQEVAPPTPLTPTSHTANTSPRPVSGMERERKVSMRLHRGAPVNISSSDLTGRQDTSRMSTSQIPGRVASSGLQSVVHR

DYRK1B = biological target: T2, DYRK1B (Homo sapiens, UniProt Q9Y463); assay: as above; type: binding; conditions: for pIC50: 11-point 3-fold serial dilution; for pKi: by Cheng-Prusoff equation
T2 construct: purchased Eurofins DiscoverX Corporation
T2 sequence (Q9Y463 whole entry): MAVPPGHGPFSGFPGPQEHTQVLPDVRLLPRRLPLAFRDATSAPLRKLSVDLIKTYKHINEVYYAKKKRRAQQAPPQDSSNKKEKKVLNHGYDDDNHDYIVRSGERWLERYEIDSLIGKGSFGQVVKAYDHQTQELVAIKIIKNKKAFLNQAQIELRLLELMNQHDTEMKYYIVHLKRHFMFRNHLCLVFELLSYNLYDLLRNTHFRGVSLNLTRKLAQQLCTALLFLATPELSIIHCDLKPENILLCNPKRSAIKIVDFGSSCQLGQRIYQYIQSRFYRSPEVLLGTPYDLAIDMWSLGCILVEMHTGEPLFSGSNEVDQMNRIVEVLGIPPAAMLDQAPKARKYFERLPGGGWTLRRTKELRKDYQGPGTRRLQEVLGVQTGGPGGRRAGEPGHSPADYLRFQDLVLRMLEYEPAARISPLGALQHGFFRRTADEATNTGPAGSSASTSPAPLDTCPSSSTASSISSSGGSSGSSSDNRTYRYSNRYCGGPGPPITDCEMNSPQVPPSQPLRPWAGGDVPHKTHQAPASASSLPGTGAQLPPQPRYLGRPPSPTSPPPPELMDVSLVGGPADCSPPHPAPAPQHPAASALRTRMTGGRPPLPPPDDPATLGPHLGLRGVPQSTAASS

DYRK1A = biological target: T3, DYRK1A (Homo sapiens, UniProt Q13627); assay: as above; type: binding; conditions: for pIC50: 11-point 3-fold serial dilution; for pKi: by Cheng-Prusoff equation
T3 construct: purchased Eurofins DiscoverX Corporation

TRKA = biological target: T4, TRKA (Homo sapiens, UniProt P04629); assay: as above; type: binding; conditions: for pIC50: 11-point 3-fold serial dilution; for pKi: by Cheng-Prusoff equation
T4 construct: purchased Eurofins DiscoverX Corporation
T4 sequence (P04629 33-796): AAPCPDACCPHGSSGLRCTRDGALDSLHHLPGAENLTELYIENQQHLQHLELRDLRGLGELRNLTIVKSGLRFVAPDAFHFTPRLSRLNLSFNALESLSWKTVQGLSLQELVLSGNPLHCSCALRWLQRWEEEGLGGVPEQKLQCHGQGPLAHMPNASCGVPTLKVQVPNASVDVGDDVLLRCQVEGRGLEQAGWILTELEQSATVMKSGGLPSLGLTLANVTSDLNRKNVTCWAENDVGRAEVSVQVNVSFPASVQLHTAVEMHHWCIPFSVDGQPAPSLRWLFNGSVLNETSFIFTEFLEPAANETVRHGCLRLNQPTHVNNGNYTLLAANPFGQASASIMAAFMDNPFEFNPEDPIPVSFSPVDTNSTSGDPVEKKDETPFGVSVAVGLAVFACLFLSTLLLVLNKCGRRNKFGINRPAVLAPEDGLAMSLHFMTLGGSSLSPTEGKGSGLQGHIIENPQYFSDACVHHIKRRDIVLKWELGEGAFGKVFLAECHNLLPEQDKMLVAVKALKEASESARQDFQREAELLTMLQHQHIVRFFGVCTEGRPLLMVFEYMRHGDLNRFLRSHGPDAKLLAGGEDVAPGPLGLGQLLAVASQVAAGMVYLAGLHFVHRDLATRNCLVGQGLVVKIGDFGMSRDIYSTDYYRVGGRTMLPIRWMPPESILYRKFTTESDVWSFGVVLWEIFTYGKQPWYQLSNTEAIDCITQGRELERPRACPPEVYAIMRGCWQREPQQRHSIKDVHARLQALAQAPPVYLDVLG

SNU638 = assay: SRB cell proliferation inhibition assay; type: cell-based; conditions: SNU-638, human stomach cancer cells, 72 h
Experimental: (§1) Human lung cancer cells (A549), colorectal cancer (HCT116) cells, breast cancer cells (MDA-MB-231), liver cancer cells (SK-HEP-1), and prostate cancer cells (PC-3) were purchased from the American Type Culture Collection (Manassas, VA, USA). Human gastric cancer cells (SNU-638) were purchased from the Korean Cell Line Bank (Seoul, Korea). Cells were cultured in medium (Dulbecco’s modified Eagle’s medium for MDA-MB-231 and SK-HEP-1 cells; Roswell Park Memorial Institute 1640 for A549, HCT116, SNU-638, PC-3 cells) supplemented with penicillin-streptomycin and 10% fetal bovine serum at 37 °C in a humidified incubator with 5% carbon dioxide. Cells were seeded at a density of 4–7 × 10^4 cells/mL in 96-well culture plates, and then treated with indicated compounds for 72 h. At the end of the experiment, cells were fixed with 10% trichloroacetic acid (TCA) solution and subjected to sulforhodamine B (SRB) assay to determine cell proliferation. The percentage of cell proliferation was calculated with the following formula:Cell proliferation (%) = 100 × [(A treated − A zero day)/(A control − A zero day)], where A is the average absorbance. The IC50 values were calculated through non-linear regression analysis using TableCurve 2D v5.01 (Systat Software Inc., San Jose, CA, USA). All experiments were performed in triplicate and data shown are representative of two or three independent experiments.

HCT116 = assay: SRB cell proliferation inhibition assay; type: cell-based; conditions: HCT-116, human colon cancer cells, 72 h
Experimental: as §1

A549 = assay: SRB cell proliferation inhibition assay; type: cell-based; conditions: human lung cancer cells, 72 h
Experimental: as §1

MDA-MB-231 = assay: SRB cell proliferation inhibition assay; type: cell-based; conditions: human breast cancer cells, 72 h
Experimental: as §1

SK-HEP-1 = assay: SRB cell proliferation inhibition assay; type: cell-based; conditions: SK-HEP1, human liver cancer cells, 72 h
Experimental: as §1

PC-3 = assay: SRB cell proliferation inhibition assay; type: cell-based; conditions: human prostate cancer cells, 72 h
Experimental: as §1

pIC50 (CK1δ) | pIC50 (DYRK1B) | pIC50 (DYRK1A) | pIC50 (TRKA) | melting point [°C] | pKi (CK1δ) | pKi (DYRK1B) | pKi (DYRK1A) | pKi (TRKA) | pIC50 (SNU638) | pIC50 (HCT116) | pIC50 (A549) | pIC50 (MDA-MB-231) | pIC50 (SK-HEP-1) | pIC50 (PC-3) | Compound
< 5.00 | < 5.00 | < 5.00 | 6.75 | – | – | – | – | – | – | – | – | – | – | – | Cc1ccc(NC(=O)Nc2cc(C(F)(F)F)ccc2F)cc1Nc1ccc2c(c1)NC(=O)/C2=C\c1ccc[nH]1 [GNF 5837, reference compound]
6.91 | 7.85 | 7.82 | 7.43 | 197 to 199 | 6.91 | 7.85 | 7.52 | 7.13 | 5.71 | 5.67 | 5.99 | 5.48 | 5.47 | 5.61 | Nc1ncnc2c1c(-c1ccco1)cn2[C@@H]1S[C@H](CO)[C@@H](O)[C@H]1O [Compound 1a, (2R,3R,4S,5R)-2-(4-Amino-5-(furan-2-yl)-7H-pyrrolo[2,3-d]pyrimidin-7-yl)-5-(hydroxymethyl)tetrahydrothiophene-3,4-diol]
< 5.00 | 7.30 | 7.85 | < 5.00 | – | – | 7.30 | 7.55 | – | – | – | – | – | – | – | Cc1nccc(-c2cn(Cc3ccccc3)c3cnccc23)n1 [AZ Dyrk1B 33, reference compound]
6.04 | < 5.00 | < 5.00 | < 5.00 | 127 to 132 | 6.04 | – | – | – | 4.56 | 4.51 | 4.38 | 4.52 | 4.99 | 4.81 | CCS(=O)(=O)Nc1ccc(-c2cn(C3SC(CO)C(O)C3O)c3ncnc(N)c23)cc1 (stereo not drawn) [Compound 1f, N-(4-(4-Amino-7-(3,4-dihydroxy-5-(hydroxymethyl)tetrahydrothiophen-2-yl)-7H-pyrrolo[2,3-d]pyrimidin-5-yl)phenyl)ethanesulfonamide]
– | – | – | – | – | – | – | – | – | 7.00 | 6.70 | 6.52 | 5.96 | 6.70 | 5.44 | Nc1ccn([C@@H]2O[C@H](CO)[C@@H](O)C2(F)F)c(=O)n1 [Gemcitabine, reference compound]
7.74 | 6.93 | 6.78 | 7.96 | 166 to 172 | – | 6.93 | 6.48 | 7.66 | 5.62 | 5.76 | 5.78 | 5.57 | 5.86 | 5.61 | Nc1ncnc2c1c(-c1cccs1)cn2[C@@H]1S[C@H](CO)[C@@H](O)[C@H]1O [Compound 1b, (2R,3R,4S,5R)-2-(4-Amino-5-(thiophen-2-yl)-7H-pyrrolo[2,3-d]pyrimidin-7-yl)-5-(hydroxymethyl)tetrahydrothiophene-3,4-diol]
7.11 | 7.07 | 6.95 | 6.32 | 110 to 112 | 7.11 | 7.07 | 6.65 | 6.02 | 6.33 | 6.25 | 6.01 | 6.51 | 6.66 | 6.70 | C=Cc1cn([C@@H]2S[C@H](CO)[C@@H](O)[C@H]2O)c2ncnc(N)c12 [Compound 1c, (2R,3R,4S,5R)-2-(4-Amino-5-vinyl-7H-pyrrolo[2,3-d]pyrimidin-7-yl)-5-(hydroxymethyl)tetrahydrothiophene-3,4-diol]
– | – | – | – | – | – | – | – | – | 6.39 | 5.95 | 6.44 | 5.31 | 6.04 | 4.63 | COc1cc([C@@H]2c3cc4c(cc3[C@@H](O[C@@H]3O[C@@H]5CO[C@@H](C)O[C@H]5[C@H](O)[C@H]3O)[C@H]3COC(=O)[C@H]23)OCO4)cc(OC)c1O [Etoposide, reference compound]
< 5.00 | < 5.00 | < 5.00 | < 5.00 | 188 to 192 | – | – | – | – | < 4.30 | < 4.30 | < 4.30 | < 4.30 | < 4.30 | < 4.30 | Nc1ncnc2c1c(-c1ccc(N3CCS(=O)(=O)CC3)cc1)cn2C1SC(CO)C(O)C1O (stereo not drawn) [Compound 1e, 4-(4-(4-Amino-7-(3,4-dihydroxy-5-(hydroxymethyl)tetrahydrothiophen-2-yl)-7H-pyrrolo[2,3-d]pyrimidin-5-yl)phenyl)thiomorpholine 1,1-dioxide]
< 5.00 | 7.66 | > 8.00 | < 5.00 | – | – | 7.66 | – | – | – | – | – | – | – | – | COc1ncc2cc(C(=O)Nc3cc(C(=O)NCc4cccc(Cl)c4)ccc3Cl)c(=O)[nH]c2n1 [TC-S 7004, reference compound]
6.37 | 5.87 | 5.53 | 6.24 | 161 to 162 | 6.37 | 5.87 | 5.22 | 5.94 | < 4.30 | < 4.30 | < 4.30 | < 4.30 | < 4.30 | < 4.30 | CCC#Cc1cn([C@@H]2S[C@H](CO)[C@@H](O)[C@H]2O)c2ncnc(N)c12 [Compound 1i, (2R,3R,4S,5R)-2-(4-Amino-5-(but-1-yn-1-yl)-7H-pyrrolo[2,3-d]pyrimidin-7-yl)-5-(hydroxymethyl)tetrahydrothiophene-3,4-diol]
7.10 | < 5.00 | < 5.00 | < 5.00 | – | – | – | – | – | – | – | – | – | – | – | LH 846 [reference compound]
6.01 | 5.97 | 5.90 | 6.53 | 190 to 192 | 6.01 | 5.97 | 5.60 | 6.23 | < 4.30 | < 4.30 | < 4.30 | 4.34 | 5.22 | < 4.30 | CC#Cc1cn([C@@H]2S[C@H](CO)[C@@H](O)[C@H]2O)c2ncnc(N)c12 [Compound 1h, (2R,3R,4S,5R)-2-(4-Amino-5-(prop-1-yn-1-yl)-7H-pyrrolo[2,3-d]pyrimidin-7-yl)-5-(hydroxymethyl)tetrahydrothiophene-3,4-diol]
5.88 | < 5.00 | < 5.00 | 6.02 | 144 to 146 | 5.88 | – | – | – | < 4.30 | < 4.30 | < 4.30 | 4.53 | < 4.30 | < 4.30 | CC(C)(C)C#Cc1cn([C@@H]2S[C@H](CO)[C@@H](O)[C@H]2O)c2ncnc(N)c12 [Compound 1j, (2R,3R,4S,5R)-2-(4-Amino-5-(3,3-dimethylbut-1-yn-1-yl)-7H-pyrrolo[2,3-d]pyrimidin-7-yl)-5-(hydroxymethyl)tetrahydrothiophene-3,4-diol]

Compound | pIC50 (CK1δ) | pIC50 (DYRK1B) | pIC50 (DYRK1A) | pIC50 (TRKA) | melting point [°C] | pKi (CK1δ) | pKi (DYRK1B) | pKi (DYRK1A) | pKi (TRKA) | pIC50 (SNU638) | pIC50 (HCT116) | pIC50 (A549) | pIC50 (MDA-MB-231) | pIC50 (SK-HEP-1) | pIC50 (PC-3)
COc1ccc2c(c1)[nH]c1c(C)nccc12 [Harmine, reference compound] | – | – | – | < 5.00 | – | – | – | – | – | – | – | – | – | – | –
